Read-outs that look alike come from different tables or passages of the source. Marks after values point to notes of the source that are not given here. Each block holds one compound with its values, some of them ahead of it. Positions of bridges follow the written chain, without caps; N, C: chain ends. Non-standard residues stand in square brackets, D forms with d. Residues, ends and D or L forms follow the SMILES beside them. *: point of attachment. NODAGA = O=C(O)CN1CCN(CC(=O)O)CCN(C(CCC(=O)*)C(=O)O)CC1; dPhe(4-NHCONH2) = NC(=O)Nc1ccc(C[C@@H](N)C(=O)O)cc1; Dihydroorotyl(S) = O=C1C[C@@H](C(=O)*)NC(=O)N1; Phe(4-Cl) = N[C@@H](Cc1ccc(Cl)cc1)C(=O)O; Phe(4-NH2) = Nc1ccc(C[C@H](N)C(=O)O)cc1
Legend:
[1] = molecular target: T1, SST2 (Mus musculus, UniProt P30875); test: Saturation binding of 64Cu-labeled radioligands to intact MPC cells (adherent); conditions: 1 h, 37 °C, mean (68% confidence interval) of one experiment in duplicate or triplicate
T1 construct: endogenous in cells; host or cells: MPC (mouse pheochromocytoma) cells, passages 35-40
T1 sequence (P30875 whole entry): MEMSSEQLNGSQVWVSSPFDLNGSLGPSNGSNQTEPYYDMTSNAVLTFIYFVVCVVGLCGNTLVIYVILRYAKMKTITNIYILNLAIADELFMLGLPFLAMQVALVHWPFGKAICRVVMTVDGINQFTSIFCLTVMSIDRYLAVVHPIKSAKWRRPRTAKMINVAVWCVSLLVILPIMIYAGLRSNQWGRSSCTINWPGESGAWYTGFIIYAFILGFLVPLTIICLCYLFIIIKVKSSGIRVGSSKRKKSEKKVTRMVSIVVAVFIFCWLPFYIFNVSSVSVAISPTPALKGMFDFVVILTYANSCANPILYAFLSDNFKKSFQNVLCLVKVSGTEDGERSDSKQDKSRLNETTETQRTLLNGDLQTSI
Protocol: A number of 3 × 10^5 cells/cm^2 were seeded in collagen-coated 48-well microplates (CELLSTAR 48 Well Cell Culture Multiwell Plates, Polystyrene, Greiner bio-one, Item no. 677180) and grown for three days. For binding assays, cell culture medium was removed and replaced by fresh medium supplemented with the radioligand (Am = 25 MBq/nmol) at increasing final concentrations between 0.321 and 40 nM (final sample volume 0.2 mL). […] Samples were incubated for 60 min at 37 °C. Incubation was stopped by washing with ice-cold Dulbecco’s PBS. Cells were lysed with 0.1 M NaOH containing 1% (w/v) SDS. Activity was measured in cell homogenates and in a series of radioligand standards containing increasing molar amounts between 0.06 and 8 pmol using the gamma counter Wizard (PerkinElmer). […] Measurements for total binding were performed in triplicate, while measurements for nonspecific binding were performed in duplicates.
Plots of “total binding” = f(radioligand) were analyzed by nonlinear regressions using the model of “one site—total, accounting for ligand depletion” as implemented in GraphPad Prism and Plots of “nonspecific binding” = f(radioligand) were analyzed by linear regressions. For the ligand depletion model, the term “NS” was constrained to the respective slopes obtained by the linear regressions. […]

[2] = molecular target: T1, SST2; test: Saturation binding of 64Cu-labeled radioligands to MPC cell homogenates; conditions: read-out: Kd, MPC cell homogenate
Protocol: MPC cells (passages 35–40) were routinely cultured in collagen-coated flasks as described elsewhere[49] and harvested at 70–80% confluency in Dulbecco’s phosphate-buffered saline containing 2.0 mM ethylenediaminetetraacetic acid (EDTA) at 4 °C for 30 min. Cells were resuspended and frozen in fetal bovine serum containing 10% (v/v) DMSO and stored at −70 °C. After thawing, cells were washed and resuspended in ice-cold saturation assays buffer, pH 7.4, containing 50 mM Tris-HCl, 1 mM EDTA, 0.5 mM o-phenanthroline, and 0.1% (w/v) bovine serum albumin. Cells were homogenized in ice-cold saturation assay buffer supplemented with complete EDTA-free proteinase inhibitor (Roche, Basel Switzerland) using a Dounce homogenizer. Protein content of cell homogenates was measured at A280nm (setting 1 Abs = 1 mg/mL) using a nanodrop spectrophotometer (Thermo-Fisher Scientific).
For the measurement of total binding, 0.155 mL of cell homogenates were incubated with radioligands (molar activity (Am) = 25 MBq/nmol) at increasing final concentrations between 0.625 and 40 nM (final sample volume 0.2 mL) in Polystyrene tubes (5 mL, round bottom, clear, Greiner bio-one, Item no. 115101). […] Activity bound to filters was measured using the gamma counter Wizard (PerkinElmer). Activity in a series of radioligand standards was measured at increasing molar amounts between 0.625 and 40 nM. […]

[3] = system: MPC cells; parameters: method as in Brandt et al.[16], Brandt et al.[17]; conditions: intact MPC cells, 20 nM radioligand, 1 h, 37 °C, acid wash glycine pH 2.8; previously published; ref Brandt et al.[16], Brandt et al.[17]; cited from earlier work
[4] = Radioligand stability toward MPC cell homogenate under assay conditions; type: in vitro ADME, mouse; conditions: 40 nM radioligand, 37 °C, radio-HPLC of supernatant
Excerpt: (§1) Considering the aforementioned exposure of the radioligands to intracellular components in cell homogenates, a degradation by intracellular proteases could lead to reduced radioligand concentrations and thus apparently higher Kd values. While most of the serine and cysteine proteases might be inhibited by the used inhibitor cocktail during homogenization (see Materials and Methods), a residual proteolytic activity cannot be excluded. Therefore, for the two radioligands, [^64Cu]Cu-NODAGA-NES2-TATE and [^64Cu]Cu-NODAGA-NES5-TATE, the stability toward cell homogenates and intact cells under assay conditions were exemplarily examined (Figure S3 in the Supporting Information).
(§2) Figure S3: Stability toward cell homogenate and intact cells
(§3) [64Cu]Cu-NODAGA-NES2-TATE and [64Cu]Cu-NODAGA-NES5-TATE (40 nM) were incubated at 37°C under assay conditions in the presence of MPC cell homogenate or MPC intact cells. After 1 h, an aliquot (160 µL) was withdrawn, mixed with “Supersol” (320 µL), which consists of 20% ethanol, 0.5% Triton X-100, 5 mM EDTA, 0.5 mM o-phenanthroline, and 0.1% saponin. This was followed by centrifugation at 13,500 rpm for 3 min (Thermo Scientific Heraeus Fresco 21). The supernatant was analyzed by radio-HPLC.1, 2 […]
(§4) (1 picture or pasted object on this page, not shown here)

[5] = Radioligand stability toward intact MPC cells under assay conditions; type: in vitro ADME, mouse; conditions: 40 nM radioligand, 37 °C, radio-HPLC of supernatant
Excerpt: as §1, §2, §3, §4

[6] = system: MPC cells; test: Cell binding and uptake (acid wash) in MPC cells; type: cell-based, mouse; conditions: intact MPC cells, 20 nM radioligand, 1 h, 37 °C, acid wash 0.05 M glycine pH 2.8 for 5 min; nonspecific with 20 μM Acetyl-TATE; from mean values of one experiment in sextuplicate
Protocol: MPC cells were seeded into collagen-coated 24-well microplates and cultivated for 4 days. All washing steps were performed using PBS containing 0.9 mM CaCl2 and 0.5 mM MgCl2. Total radioligand uptake was measured after incubation with the radioligand (Am = 30 GBq/μmol) at a final concentration of 20 nM in RPMI 1640 medium with GlutaMAX supplement (Thermo Fisher Scientific) for 1 h at 37 and 4 °C. Nonspecific binding was determined in the presence of 20 μM Acetyl-TATE. The uptake fraction was measured after acid wash of cell surface-bound radioligand with wash buffer containing 0.05 M glycine, pH 2.8, for 5 min. The activity of cell homogenates was measured using the γ counter Wizard (PerkinElmer). The protein content of cell homogenates was measured as described above.
Nonspecific binding was determined in the presence of 20 µM Acetyl -TATE (radioligand concentration of 20 nM). Data shown in A and B are mean values (±SD) of one experiment, which was performed in sextuplicate. In C, the uptake fraction (“internalized” or not acid releasable radioligand, red bars in A, mean values) is expressed as percentage of specific total-bound radioligand (blue bars in A, mean values). The difference to 100% was assigned to “surface-bound” radioligand. For a better overview, the compound names were abbreviated. […]
specific binding of radioligand
Incubation at 37°C for 1 h […]

- Kd [1]: 8.17 nM
- Kd [2]: 5.35 nM
Structure (SMILES): C[C@@H](O)[C@@H]1NC(=O)[C@H](CCCCN)NC(=O)[C@@H](Cc2ccc(NC(N)=O)cc2)NC(=O)[C@H](Cc2ccc(NC(=O)[C@@H]3CC(=O)NC(=O)N3)cc2)NC(=O)[C@H](NC(=O)[C@H](Cc2ccc(Cl)cc2)NC(=O)CCC(C(=O)O)N2CCN(CC(=O)O)CCN(CC(=O)O)CC2)CSSC[C@@H](C(=O)N[C@H](Cc2ccc(O)cc2)C(N)=O)NC1=O (stereo partly drawn) [JR11] ({NODAGA}-[Phe(4-Cl)][dC][Phe(4-NH2)](Dihydroorotyl(S))[dPhe(4-NHCONH2)]KTC[dY]-NH2; disulfide 2-7)

Structure (SMILES): CCCC[C@H](NC(=O)CCC(C(=O)O)N1CCN(CC(=O)O)CCN(CC(=O)O)CC1)C(=O)N[C@H](C(=O)N[C@@H](CCCCN=[N+]=[N-])C(=O)NCCOCCOCC(=O)N[C@H](Cc1ccccc1)C(=O)N[C@H]1CSSC[C@@H](C(=O)N[C@H](C(=O)O)[C@@H](C)O)NC(=O)[C@H]([C@@H](C)O)NC(=O)[C@H](CCCCN)NC(=O)[C@@H](Cc2c[nH]c3ccccc23)NC(=O)[C@H](Cc2ccc(O)cc2)NC1=O)C(C)C (stereo partly shown) [NES1-TATE]
- uptake fraction (internalized or not acid releasable radioligand) as percentage of specific total-bound radioligand [3]: 49 ^d %

- stability (radioligand remaining stable) after 1 h of incubation with MPC cell homogenate [4]: ≥ 87%
- stability (radioligand remaining stable) after 1 h of incubation with intact MPC cells [5]: ≥ 87%
Structure (SMILES): CCCC[C@H](NC(=O)c1ccc(CNC(=O)CCC(C(=O)O)N2CCN(CC(=O)O)CCN(CC(=O)O)CC2)cc1)C(=O)N[C@H](C(=O)N[C@@H](CCCCN=[N+]=[N-])C(=O)NCCOCCOCC(=O)N[C@H](Cc1ccccc1)C(=O)N[C@H]1CSSC[C@@H](C(=O)N[C@H](C(=O)O)[C@@H](C)O)NC(=O)[C@H]([C@@H](C)O)NC(=O)[C@H](CCCCN)NC(=O)[C@@H](Cc2c[nH]c3ccccc23)NC(=O)[C@H](Cc2ccc(O)cc2)NC1=O)C(C)C (stereo partly shown) [NES2-TATE]
- uptake fraction (internalized or not acid releasable radioligand) as percentage of specific total-bound radioligand [3]: 56 ^d %

Structure (SMILES): C[C@@H](O)[C@H](NC(=O)[C@@H]1CSSC[C@H](NC(=O)[C@@H](Cc2ccccc2)NC(=O)COCCOCCNC(=O)[C@H](CCCCN=[N+]=[N-])NC(=O)[C@H](Cc2ccccc2)NC(=O)CNC(=O)c2ccc(CNC(=O)CCC(C(=O)O)N3CCN(CC(=O)O)CCN(CC(=O)O)CC3)cc2)C(=O)N[C@@H](Cc2ccc(O)cc2)C(=O)N[C@H](Cc2c[nH]c3ccccc23)C(=O)N[C@@H](CCCCN)C(=O)N[C@@H]([C@@H](C)O)C(=O)N1)C(=O)O (stereo partly shown) [NES3-TATE]
- uptake fraction (internalized or not acid releasable radioligand) as percentage of specific total-bound radioligand [3]: 68 ^d %

Structure (SMILES): C[C@@H](O)[C@H](NC(=O)[C@@H]1CSSC[C@H](NC(=O)[C@@H](Cc2ccccc2)NC(=O)COCCOCCNC(=O)[C@H](CCCCN=[N+]=[N-])NC(=O)[C@H](Cc2ccccc2)NC(=O)CNC(=O)[C@@H](CCCNC(=N)N)NC(=O)c2ccc(CNC(=O)CCC(C(=O)O)N3CCN(CC(=O)O)CCN(CC(=O)O)CC3)cc2)C(=O)N[C@@H](Cc2ccc(O)cc2)C(=O)N[C@H](Cc2c[nH]c3ccccc23)C(=O)N[C@@H](CCCCN)C(=O)N[C@@H]([C@@H](C)O)C(=O)N1)C(=O)O (stereo partly shown) [NES4-TATE]
- uptake fraction (internalized or not acid releasable radioligand) as percentage of specific total-bound radioligand [3]: 53 ^d %

- stability (radioligand remaining stable) after 1 h of incubation with MPC cell homogenate [4]: ≥ 87%
- stability (radioligand remaining stable) after 1 h of incubation with intact MPC cells [5]: ≥ 87%
Structure (SMILES): C[C@@H](O)[C@H](NC(=O)[C@@H]1CSSC[C@H](NC(=O)[C@@H](Cc2ccccc2)NC(=O)COCCOCCNC(=O)[C@H](CCCCn2cc(CCC(=O)N[C@@H](CCCCNC(=O)CCCc3ccc(I)cc3)C(=O)O)nn2)NC(=O)[C@H](Cc2ccccc2)NC(=O)CNC(=O)[C@@H](CCCNC(=N)N)NC(=O)c2ccc(CNC(=O)CCC(C(=O)O)N3CCN(CC(=O)O)CCN(CC(=O)O)CC3)cc2)C(=O)N[C@@H](Cc2ccc(O)cc2)C(=O)N[C@H](Cc2c[nH]c3ccccc23)C(=O)N[C@@H](CCCCN)C(=O)N[C@@H]([C@@H](C)O)C(=O)N1)C(=O)O (stereo partly shown) [NES5-TATE]
- uptake fraction (internalized or not acid releasable radioligand) as percentage of specific total-bound radioligand [3]: 62 ^d %

Structure (SMILES): C#CC[C@H](NC(=O)CCC(C(=O)O)N1CCN(CC(=O)O)CCN(CC(=O)O)CC1)C(=O)NCCOCCOCC(=O)N[C@H](Cc1ccccc1)C(=O)N[C@H]1CSSC[C@@H](C(=O)N[C@H](C(=O)O)[C@@H](C)O)NC(=O)[C@H]([C@@H](C)O)NC(=O)[C@H](CCCCN)NC(=O)[C@@H](Cc2c[nH]c3ccccc23)NC(=O)[C@H](Cc2ccc(O)cc2)NC1=O (stereo partly shown) [Pra-PEG2-TATE]
- uptake fraction (internalized or not acid releasable radioligand) as percentage of specific total-bound radioligand [6]: 48%

Structure (SMILES): C[C@@H](O)[C@H](NC(=O)[C@@H]1CSSC[C@H](NC(=O)[C@@H](Cc2ccccc2)NC(=O)COCCOCCNC(=O)[C@H](Cc2cn(CCCCC(=O)N[C@H](CCCCNC(=O)CCCc3ccc(I)cc3)C(=O)O)nn2)NC(=O)CCC(C(=O)O)N2CCN(CC(=O)O)CCN(CC(=O)O)CC2)C(=O)N[C@@H](Cc2ccc(O)cc2)C(=O)N[C@H](Cc2c[nH]c3ccccc23)C(=O)N[C@@H](CCCCN)C(=O)N[C@@H]([C@@H](C)O)C(=O)N1)C(=O)O (stereo partly shown) [cLAB1-TATE]
- uptake fraction (internalized or not acid releasable radioligand) as percentage of specific total-bound radioligand [6]: 66%

Reference: article PMC10324063, “Comparative Saturation Binding Analysis of ^64Cu-Labeled Somatostatin Analogues Using Cell Homogenates and Intact Cells” (ACS Omega, 2023)
